These results are taken from US20140358576A1, “SYSTEM AND METHOD FOR SURVEILLANCE AND EVALUATION OF SAFETY RISKS ASSOCIATED WITH MEDICAL INTERVENTIONS” (Adverse Events, Inc., priority 2013, published 2014).

Each structure is given as a SMILES string. Structures can show the parent of a compound that is named as a salt. Numbered stars: 1 amine (or outer) side, 2 acyl side, 3 side chain; on linkers, the order of the positions; unused ones are H or OH. Bridge positions count the residues as written; N and C are the ends. Square brackets hold non-standard residues; d marks the D form. Peptide text beside a SMILES is read from it. * marks the point of attachment. hTyr(3S-OH,4S-OH,3'-OSO3H) = N[C@H](C(=O)O)[C@H](O)[C@@H](O)c1ccc(O)c(OS(=O)(=O)O)c1; Orn(4R-OH,5R-OH) = O=C([C@H](C[C@@H](O)[C@@H](O)N[*:3])N[*:1])[*:2]; Pro(3S-OH,4S-Me) = C[C@H]1CN[C@H](C(=O)O)[C@H]1O; X1 = CCCCCOc1ccc(-c2cc(-c3ccc(C(=O)*)cc3)no2)cc1; Gln(3R-OH) = NC(=O)C[C@@H](O)[C@H](N)C(=O)O; Hyp = O=C(O)[C@@H]1C[C@@H](O)CN1

For the series the following is noted: human.
`CN1CCC(=C2c3ccccc3CCn3c(C=O)cnc32)CC1` [alcaftadine]: the ROR came out at 12.53.

As to `Cc1nnc2n1-c1ccc(Cl)cc1C(c1ccccc1)=NC2` [alprazolam], the “Adverse Event Seriousness” value worked out at 13.30, the Outcome was 21.02, the ROR is 6.40 and the RxScore was found to be 72.84.

As to `CC[C@H]1OC(=O)[C@H](C)[C@@H](O[C@H]2C[C@@](C)(OC)[C@@H](O)[C@H](C)O2)[C@H](C)[C@@H](O[C@@H]2O[C@H](C)C[C@H](N(C)C)[C@H]2O)[C@](C)(O)C[C@@H](C)CN(C)[C@H](C)[C@@H](O)[C@]1(C)O` [azithromycin], the ROR is reported as 13.60.

Turning to `C[C@H]1[C@H](NC(=O)/C(=N\OC(C)(C)C(=O)O)c2csc(N)n2)C(=O)N1S(=O)(=O)O` [aztreonam], the “Adverse Event Seriousness” value came to 14.58, the Outcome is given as 22.41, the ROR turned out to be 5.83 and the RxScore turned out to be 75.34.

For `CC(C)C[C@H](NC(=O)[C@H](CCc1ccccc1)NC(=O)CN1CCOCC1)C(=O)N[C@@H](Cc1ccccc1)C(=O)N[C@@H](CC(C)C)C(=O)[C@@]1(C)CO1` [carfilzomib], the Outcome worked out at 22.81.

On to `CCCC(C)(COC(N)=O)COC(=O)NC(C)C` (stereo not drawn) [carisoprodol], for which the “Adverse Event Seriousness” value worked out at 17.03, the Outcome was found to be 26.05, the ROR came out at 9.07 and the RxScore is given as 83.70.

Molecule `Nc1nc(Cl)nc2c1ncn2[C@@H]1O[C@H](CO)[C@@H](O)[C@@H]1F` [clofarabine] registered an Outcome of 23.27.

`O=C1CN=C(c2ccccc2Cl)c2cc([N+](=O)[O-])ccc2N1` [clonazepam]: the “Adverse Event Seriousness” value is 11.38, the Outcome was 15.34, the ROR came to 3.43 and the RxScore was 51.36.

For `CN1CCN(C2=Nc3cc(Cl)ccc3Nc3ccccc32)CC1` [clozapine], the “Adverse Event Seriousness” value was 16.28 and the Outcome worked out at 23.55.

With `CN(C)CCC=C1c2ccccc2C=Cc2ccccc21` [cyclobenzaprine hydrochloride], the “Adverse Event Seriousness” value is given as 12.25, the Outcome amounted to 22.45, the ROR came out at 6.09 and the RxScore is 72.46.

As for `CCCCC[C@H](O)/C=C/[C@H]1[C@H](O)CC(=O)[C@@H]1C/C=C\CCCC(=O)O` [dinoprostone], the “Adverse Event Seriousness” value was determined as 15.66, the Outcome is on record as 19.09, the ROR worked out at 10.62 and the RxScore is listed as 74.95.

Turning to `CCCC(CCC)C(=O)O` [divalproex sodium], the “Adverse Event Seriousness” value is reported as 8.51, the Outcome stood at 11.14, the ROR came out at 3.85 and the RxScore amounted to 41.09.

Regarding `CNC[C@H](O)c1ccc(O)c(O)c1` [epinephrine injection, epinephrine], the “Adverse Event Seriousness” value was determined as 4.69, the Outcome was 21.03, the ROR is 16.91 and the RxScore was found to be 73.02.

As to `C#Cc1cccc(Nc2ncnc3cc(OCCOC)c(OCCOC)cc23)c1` [erlotinib hydrochloride], the “Adverse Event Seriousness” value stood at 18.95.

Regarding `C[C@]12CC[C@@H]3c4ccc(O)cc4CC[C@H]3[C@@H]1CC[C@@H]2O` [estradiol], the “Adverse Event Seriousness” value was 20.16 and the ROR is 13.26.

Turning to `CCC1(C)CC(=O)NC1=O` (stereo not drawn) [ethosuximide], the “Adverse Event Seriousness” value was 7.71, the Outcome worked out at 10.64, the ROR was 2.92 and the RxScore was found to be 41.01.

On to `NC(=O)OCC(COC(N)=O)c1ccccc1` [felbamate], for which the “Adverse Event Seriousness” value turned out to be 7.72, the Outcome is 14.26, the ROR amounted to 2.81 and the RxScore stood at 43.92.

Turning to `O=C1NC(c2ccccc2)(c2ccccc2)C(=O)N1COP(=O)(O)O` [fosphenytoin sodium], the “Adverse Event Seriousness” value is given as 8.16, the Outcome is 15.85, the ROR came to 5.09 and the RxScore is given as 46.69.

In the case of `CC(OC(=O)NCC1(CC(=O)O)CCCCC1)OC(=O)C(C)C` (stereo not drawn) [gabapentin enacarbil], the “Adverse Event Seriousness” value is 4.67, the Outcome is given as 7.53, the ROR turned out to be 2.64 and the RxScore was found to be 42.19.

For the molecule `NCC1(CC(=O)O)CCCCC1` [gabapentin], the “Adverse Event Seriousness” value is 9.67, the Outcome worked out at 11.51, the ROR is 2.86 and the RxScore is 43.00.

As for `CCCCCC(=O)O[C@]1(C(C)=O)CC[C@H]2[C@@H]3CCC4=CC(=O)CC[C@]4(C)[C@H]3CC[C@@]21C` [hydroxyprogesterone caproate], the ROR is 12.09.

Turning to `CCCCCN(C)CCC(O)(P(=O)(O)O)P(=O)(O)O` [ibandronate sodium], the “Adverse Event Seriousness” value was 10.42, the Outcome was found to be 13.02, the ROR stood at 3.13 and the RxScore came out at 45.79.

With `Nc1nnc(-c2cccc(Cl)c2Cl)c(N)n1` [lamotrigine], the “Adverse Event Seriousness” value came out at 8.89, the Outcome is 10.41, the ROR was determined as 3.57 and the RxScore was determined as 42.04.

Regarding `CC(=O)O[C@]1(C(C)=O)CC[C@H]2[C@@H]3C[C@H](C)C4=CC(=O)CC[C@]4(C)[C@H]3CC[C@@]21C` [medroxyprogesterone acetate], the “Adverse Event Seriousness” value is reported as 19.89 and the ROR came out at 12.89.

Regarding `CN[C@@H](C)Cc1ccccc1` [methamphetamine hydrochloride], the “Adverse Event Seriousness” value came to 15.73, the Outcome was 20.20, the ROR is recorded as 12.29 and the RxScore was 78.80.

Molecule `COC(=O)C(c1ccccc1)C1CCCCN1` (stereo not drawn) [methylphenidate] came in with an ROR of 13.69.

On to `CCCCCOc1ccc(-c2cc(-c3ccc(C(=O)N[C@H]4C[C@@H](O)[C@@H](O)NC(=O)[C@@H]5[C@@H](O)[C@@H](C)CN5C(=O)[C@H]([C@H](O)CC(N)=O)NC(=O)[C@H]([C@H](O)[C@@H](O)c5ccc(O)c(OS(=O)(=O)O)c5)NC(=O)[C@@H]5C[C@@H](O)CN5C(=O)[C@H]([C@@H](C)O)NC4=O)cc3)no2)cc1` [micafungin sodium] (X1-[Orn(4R-OH,5R-OH)]T[Hyp][hTyr(3S-OH,4S-OH,3'-OSO3H)][Gln(3R-OH)][Pro(3S-OH,4S-Me)]; lactam 1-C), for which the Outcome was found to be 22.48.

As for `O=C1CCCC(=O)C1C(=O)c1ccc(C(F)(F)F)cc1[N+](=O)[O-]` [nitisinone], the “Adverse Event Seriousness” value is listed as 15.20, the Outcome is reported as 23.09, the ROR was 5.32 and the RxScore turned out to be 74.78.

On to `[N]=O` [nitric oxide], for which the “Adverse Event Seriousness” value amounted to 19.58.

For the molecule `NCCC(O)(P(=O)(O)O)P(=O)(O)O` [pamidronate disodium], the “Adverse Event Seriousness” value is 12.75, the Outcome is 6.73, the ROR is reported as 11.49 and the RxScore worked out at 51.86.

As to `N#Cc1ccccc1-c1cc(-c2ccccn2)cn(-c2ccccc2)c1=O` [perampanel], the “Adverse Event Seriousness” value is reported as 7.92, the Outcome worked out at 14.67, the ROR came out at 3.53 and the RxScore is listed as 47.40.

`CC(C)(N)Cc1ccccc1` [phentermine] yielded an ROR of 12.22.

As for `O=C1NC(=O)C(c2ccccc2)(c2ccccc2)N1` [phenytoin sodium], the “Adverse Event Seriousness” value turned out to be 8.38, the Outcome came to 12.65, the ROR is given as 5.12 and the RxScore was 44.47.

`Nc1cccc2c1C(=O)N(C1CCC(=O)NC1=O)C2=O` (stereo not drawn) [pomalidomide] yielded an Outcome of 25.31.

With `CC(C)C[C@H](CN)CC(=O)O` [pregabalin], the “Adverse Event Seriousness” value is reported as 7.13, the Outcome is given as 8.25, the ROR is recorded as 2.21 and the RxScore was found to be 36.30.

Regarding `CCC1(c2ccccc2)C(=O)NCNC1=O` [primidone], the “Adverse Event Seriousness” value came to 8.70, the Outcome stood at 10.86, the ROR was 3.59 and the RxScore was found to be 42.07.

As to `C=C[C@]1(C)C[C@@H](OC(=O)CS[C@@H]2C[C@H]3CC[C@@H](C2)N3C)[C@]2(C)[C@H](C)CC[C@]3(CCC(=O)[C@H]32)[C@@H](C)[C@@H]1O` [retapamulin], the ROR stood at 12.35.

In the case of `CN1C(=O)C(O)N=C(c2ccccc2)c2cc(Cl)ccc21` (stereo not drawn) [temazepam], the “Adverse Event Seriousness” value came out at 12.79, the Outcome is on record as 22.08, the ROR is recorded as 5.17 and the RxScore was 72.69.

Regarding `O=C1CCC(N2C(=O)c3ccccc3C2=O)C(=O)N1` (stereo not drawn) [thalidomide], the “Adverse Event Seriousness” value was 17.30 and the Outcome worked out at 22.64.

For the molecule `Cc1ccsc1C(=CCCN1CCC[C@@H](C(=O)O)C1)c1sccc1C` [tiagabine hydrochloride], the “Adverse Event Seriousness” value was found to be 10.82, the Outcome was determined as 12.04, the ROR was determined as 6.41 and the RxScore is on record as 48.70.

For `CC1(C)O[C@@H]2[C@@H](CO[C@@]3(COS(N)(=O)=O)OC(C)(C)O[C@@H]23)O1` [topiramate], the “Adverse Event Seriousness” value worked out at 11.28, the Outcome stood at 11.96, the ROR is on record as 4.29 and the RxScore amounted to 47.54.

Take `CCCC(CCC)C(=O)[O-].[Na+]` [valproate sodium]: the “Adverse Event Seriousness” value is reported as 10.26, the Outcome was determined as 13.09, the ROR amounted to 5.64 and the RxScore was determined as 48.83.

Regarding `CCCC(CCC)C(=O)O` [valproic acid], the “Adverse Event Seriousness” value turned out to be 12.54, the Outcome is 16.41, the ROR is 5.34 and the RxScore stood at 54.78.

On to `C=CC(N)CCC(=O)O` (stereo not drawn) [vigabatrin], for which the “Adverse Event Seriousness” value came out at 13.32, the Outcome came to 13.81, the ROR stood at 4.80 and the RxScore turned out to be 51.42.
